From the NIST ThermoML archive (doi:10.1016/j.fluid.2005.11.013)

Assay: wn = mass fraction of the nth substance listed
Settings: Liquid; for mass density: Other PVT measurement; for viscosity: 17000 kPa, high pressure falling cylinger viscometer

CC(=O)OC[C@H]1O[C@@H](OC(C)=O)[C@H](OC(C)=O)[C@@H](OC(C)=O)[C@H]1OC(C)=O [β-D-galactose pentaacetate] + O=C=O
mass density [kg/m3]
Settings	w1 = 0.206	w1 = 0.259
308 K, 10600 kPa	930	990
308 K, 11000 kPa	–	1000
308 K, 11400 kPa	940	–
308 K, 11700 kPa	–	1010
308 K, 12300 kPa	950	–
308 K, 12400 kPa	–	1020
308 K, 13300 kPa	–	1030
308 K, 13700 kPa	960	–
308 K, 14900 kPa	–	1040
308 K, 15000 kPa	970	–
308 K, 15500 kPa	970	–
308 K, 17100 kPa	–	1060
313 K, 11900 kPa	–	970
313 K, 12100 kPa	940	–
313 K, 12600 kPa	–	980
313 K, 12700 kPa	940	–
313 K, 13300 kPa	–	980
313 K, 13600 kPa	950	–
313 K, 14200 kPa	–	990
313 K, 15100 kPa	960	1000
313 K, 15800 kPa	–	1010
313 K, 16200 kPa	970	–
313 K, 17300 kPa	–	1020
313 K, 17500 kPa	980	–
313 K, 18500 kPa	980	–
313 K, 19400 kPa	980	–
313 K, 19800 kPa	–	1040
318 K, 14400 kPa	930	–
318 K, 15100 kPa	940	–
318 K, 15900 kPa	940	–
318 K, 16700 kPa	950	–
318 K, 17900 kPa	960	–
318 K, 20300 kPa	970	–
323 K, 15500 kPa	930	–
323 K, 16000 kPa	940	–
323 K, 16600 kPa	940	–
323 K, 17700 kPa	950	–
323 K, 18900 kPa	960	–

318 K
Settings	viscosity [mPa·s]
w1 = 0.18	0.095
w1 = 0.25	0.103
